BigSolDB 2.1

## CN1CC(=O)N2[C@H](c3ccc4c(c3)OCO4)c3[nH]c4ccccc4c3C[C@@H]2C1=O
In transcutol, 298.15 K
  solubility (mole fraction): 0.00876
In transcutol, 303.15 K
  solubility (mole fraction): 0.00973
In transcutol, 308.15 K
  solubility (mole fraction): 0.0107
In transcutol, 313.15 K
  solubility (mole fraction): 0.0119
In transcutol, 318.15 K
  solubility (mole fraction): 0.0133
In transcutol, 323.15 K
  solubility (mole fraction): 0.0149
In transcutol, 328.15 K
  solubility (mole fraction): 0.0166
In transcutol, 333.15 K
  solubility (mole fraction): 0.0182
In water, 298.15 K
  solubility (mole fraction): 5.74e-07
In water, 303.15 K
  solubility (mole fraction): 7.59e-07
In water, 308.15 K
  solubility (mole fraction): 1.02e-06
In water, 313.15 K
  solubility (mole fraction): 1.34e-06
In water, 318.15 K
  solubility (mole fraction): 1.75e-06
In water, 323.15 K
  solubility (mole fraction): 2.26e-06
In water, 328.15 K
  solubility (mole fraction): 2.77e-06
In water, 333.15 K
  solubility (mole fraction): 3.45e-06
